In patent US20210254056A1, “IDENTIFICATION AND TARGETED MODULATION OF GENE SIGNALING NETWORKS” (CAMP4 THERAPEUTICS CORPORATION, priority 2017, published 2021):
Counter-ions that a name gives are not always drawn.

Tested on: hepatocytes
Assay: RNA-seq of hepatocytes treated with Phase III failure compounds
Settings: for significant modulation of expression of any of the genes analyzed: p≤0.05; for Number (#) of genes having significantly changed expression: Phase III failure compounds, significance: FPKM≥0.5, log 2(fold-change)≥1, q-value≥0.05 (so in the source); for significant modulation of expression of disease genes: q≤0.05, genes in the value or listed in the block
Procedure: RNA-seq was performed to determine the effects of the compounds on hepatocytes.
Significance was determined by the criteria of FPKM≥0.5, a log 2(fold-change)≥1, and a […].

[1] = RNA-seq, hepatocytes, gene named in the value

COc1cc2ncnc(Nc3ccc(F)c(Cl)c3)c2cc1NC(=O)/C=C/CN1CCCCC1 [Dacomitinib (PF299804, PF299), Dacomitinib]
significant modulation of expression of any of the genes analyzed (RNA-seq, hepatocytes): not observed to significantly modulate expression

CCC(CC)CC1(C(=O)Nc2ccccc2SC(=O)C(C)C)CCCCC1 [Dalcetrapib]
Number (#) of genes having significantly changed expression (RNA-seq, hepatocytes): 43 | significant modulation of expression of disease genes (RNA-seq, hepatocytes): significantly (q≤0.05) modulate expression of CYP3A4 and GOSH | effect on disease gene expression (RNA-seq, hepatocytes): no effect on any disease gene

CCN(CC)CCN(Cc1ccc(-c2ccc(C(F)(F)F)cc2)cc1)C(=O)Cn1c(SCc2ccc(F)cc2)nc(=O)c2c1CCC2 [Darapladib]
RNA-seq results, CYP2B6 expression: −0.12 | RNA-seq results, CYP2C19 expression: −0.01 | RNA-seq results, CYP2D6 expression: −0.21 | RNA-seq results, CYP3A4 expression: −0.47 | RNA-seq results, CYP7B1 expression: −0.03 | RNA-seq results, CYP39A1 expression: −0.23 | RNA-seq results: CYP2B6 expression: 0.25 | RNA-seq results: CYP2C19 expression: 0.54 | RNA-seq results: CYP2D6 expression: −0.06 | RNA-seq results: CYP3A4 expression: 0.07 | RNA-seq results: CYP7B1 expression: −0.46 | RNA-seq results: CYP39A1 expression: −0.07 | significant modulation of expression of disease genes (RNA-seq, hepatocytes): significantly (q≤0.05) modulate expression | genes down-regulated by the compound [1]: ANGPTL3 was observed to be down-regulated | genes up-regulated by the compound [1]: up-regulated genes: LDLR, PCSK9, and HMGCR | RNA-seq results: A1BG expression (gene A1BG, hepatocytes): 0.01 | RNA-seq results: AGTR1 expression (gene AGTR1, hepatocytes): −0.18 | RNA-seq results: AGXT expression (gene AGXT, hepatocytes): −0.38 | RNA-seq results: AHI1 expression (gene AHI1, hepatocytes): 0.12 | RNA-seq results: AMPD3 expression (gene AMPD3, hepatocytes): 0.42 | RNA-seq results: AMT expression (gene AMT, hepatocytes): −0.35 | RNA-seq results: ANGPTL3 expression (gene ANGPTL3, hepatocytes): −1.20 | RNA-seq results: ANKS4B expression (gene ANKS4B, hepatocytes): −0.52 | RNA-seq results: ANKS6 expression (gene ANKS6, hepatocytes): 0.11 | RNA-seq results: ANPEP expression (gene ANPEP, hepatocytes): 0.11 | RNA-seq results: AOC2 expression (gene AOC2, hepatocytes): 0.28 | RNA-seq results: APOA2 expression (gene APOA2, hepatocytes): −0.33 | RNA-seq results: APOA5 expression (gene APOA5, hepatocytes): −0.19 | RNA-seq results: APOB expression (gene APOB, hepatocytes): 0.54 | RNA-seq results: COG5 expression (gene COG5, hepatocytes): 0.11 | RNA-seq results: COG6 expression (gene COG6, hepatocytes): −0.09 | RNA-seq results: COL1A1 expression (gene COL1A1, hepatocytes): 0.18 | RNA-seq results: COX6A1 expression (gene COX6A1, hepatocytes): −0.08 | RNA-seq results: CP expression (gene CP, hepatocytes): 0.77 | RNA-seq results: CPS1 expression (gene CPS1, hepatocytes): −0.89 | RNA-seq results: CPT1A expression (gene CPT1A, hepatocytes): 0.11 | RNA-seq results: CPT2 expression (gene CPT2, hepatocytes): −0.16 | RNA-seq results: CROT expression (gene CROT, hepatocytes): −0.49 | RNA-seq results: CSPP1 expression (gene CSPP1, hepatocytes): 0.24 | RNA-seq results: CTC1 expression (gene CTC1, hepatocytes): −0.01 | RNA-seq results: CTDSP2 expression (gene CTDSP2, hepatocytes): 0.52 | RNA-seq results: CTH expression (gene CTH, hepatocytes): 1.17 | RNA-seq results: CTNS expression (gene CTNS, hepatocytes): −0.11 | RNA-seq results: CTSF expression (gene CTSF, hepatocytes): 0.25 | RNA-seq results: CTSK expression (gene CTSK, hepatocytes): 0.31 | RNA-seq results: CYB5A expression (gene CYB5A, hepatocytes): −0.12 | RNA-seq results: CYB5R3 expression (gene CYB5R3, hepatocytes): −0.21 | RNA-seq results: CYP27A1 expression (gene CYP27A1, hepatocytes): −0.18 | RNA-seq results: DAO expression (gene DAO, hepatocytes): −1.06 | RNA-seq results: DBT expression (gene DBT, hepatocytes): −0.13 | RNA-seq results: DCDC2 expression (gene DCDC2, hepatocytes): −1.43 | RNA-seq results: DCXR expression (gene DCXR, hepatocytes): −0.74 | RNA-seq results: FABP1 expression (gene FABP1, hepatocytes): 0.07 | RNA-seq results: FADD expression (gene FADD, hepatocytes): −0.45 | RNA-seq results: FAM111A expression (gene FAM111A, hepatocytes): 0.1 | RNA-seq results: FAM111B expression (gene FAM111B, hepatocytes): −2.15 | RNA-seq results: FAN1 expression (gene FAN1, hepatocytes): −0.03 | RNA-seq results: FARS2 expression (gene FARS2, hepatocytes): −0.42 | RNA-seq results: FASLG expression (gene FASLG, hepatocytes): −1.32 | RNA-seq results: FGA expression (gene FGA, hepatocytes): −0.32 | RNA-seq results: FGD1 expression (gene FGD1, hepatocytes): −0.46 | RNA-seq results: FGFR2 expression (gene FGFR2, hepatocytes): −0.13 | RNA-seq results: FIG4 expression (gene FIG4, hepatocytes): −0.07 | RNA-seq results: FIS1 expression (gene FIS1, hepatocytes): −0.35 | RNA-seq results: FTCD expression (gene FTCD, hepatocytes): −0.56 | RNA-seq results: FTH1 expression (gene FTH1, hepatocytes): 0.44 | RNA-seq results: FUCA1 expression (gene FUCA1, hepatocytes): −0.13 | RNA-seq results: FXN expression (gene FXN, hepatocytes): −0.22 | RNA-seq results: G6PC3 expression (gene G6PC3, hepatocytes): −0.52 | RNA-seq results: G6PC expression (gene G6PC, hepatocytes): 0.6 | RNA-seq results: G6PD expression (gene G6PD, hepatocytes): −0.41 | RNA-seq results: GALK1 expression (gene GALK1, hepatocytes): −0.61 | RNA-seq results: GALK2 expression (gene GALK2, hepatocytes): −0.14 | RNA-seq results: GALT expression (gene GALT, hepatocytes): −0.58 | RNA-seq results: GATA6 expression (gene GATA6, hepatocytes): 0 | RNA-seq results: GATM expression (gene GATM, hepatocytes): −0.52 | RNA-seq results: GBA expression (gene GBA, hepatocytes): −0.23 | RNA-seq results: GBE1 expression (gene GBE1, hepatocytes): −0.11 | RNA-seq results: GCH1 expression (gene GCH1, hepatocytes): −0.19 | RNA-seq results: GCKR expression (gene GCKR, hepatocytes): −0.06 | RNA-seq results: GCLC expression (gene GCLC, hepatocytes): −0.02 | RNA-seq results: GOSH expression (gene GOSH, hepatocytes): −1.21 | RNA-seq results: RRM2B (gene RRM2B, hepatocytes): −0.49 | RNA-seq results: RSAD1 (gene RSAD1, hepatocytes): −0.13 | RNA-seq results: SAMHD1 (gene SAMHD1, hepatocytes): −0.48 | RNA-seq results: SC5D (gene SC5D, hepatocytes): 0.37 | RNA-seq results: SCARB1 (gene SCARB1, hepatocytes): −0.07 | RNA-seq results: SCN9A (gene SCN9A, hepatocytes): −0.42 | RNA-seq results: SDCCAG8 (gene SDCCAG8, hepatocytes): −0.06 | RNA-seq results: SEPN1 (gene SEPN1, hepatocytes): −0.10 | RNA-seq results: SERAC1 (gene SERAC1, hepatocytes): −0.02 | RNA-seq results: SERPINA1 (gene SERPINA1, hepatocytes): −0.05 | RNA-seq results: SERPING1 (gene SERPING1, hepatocytes): 0.21 | RNA-seq results: SERPINI1 (gene SERPINI1, hepatocytes): −0.42 | RNA-seq results: SETBP1 (gene SETBP1, hepatocytes): −0.10 | RNA-seq results: SFXN4 (gene SFXN4, hepatocytes): −0.38 | RNA-seq results: SLC10A1 (gene SLC10A1, hepatocytes): −0.68 | RNA-seq results: SLC10A3 (gene SLC10A3, hepatocytes): 0.47 | RNA-seq results: SLC10A5 (gene SLC10A5, hepatocytes): −0.54 | RNA-seq results: SLC10A7 (gene SLC10A7, hepatocytes): −0.22 | RNA-seq results: SLC11A2 (gene SLC11A2, hepatocytes): 0.39 | RNA-seq results: SLC19A1 (gene SLC19A1, hepatocytes): −0.26 | RNA-seq results: SLC19A2 (gene SLC19A2, hepatocytes): 0.54 | RNA-seq results: SLC19A3 (gene SLC19A3, hepatocytes): −0.22 | RNA-seq results: SLC22A1 (gene SLC22A1, hepatocytes): −0.28 | RNA-seq results: SLC22A5 (gene SLC22A5, hepatocytes): −0.23 | RNA-seq results: SLC25A1 (gene SLC25A1, hepatocytes): 0.24 | RNA-seq results: SLC25A10 (gene SLC25A10, hepatocytes): −0.48 | RNA-seq results: SLC25A12 (gene SLC25A12, hepatocytes): −0.22 | RNA-seq results: SLC25A13 (gene SLC25A13, hepatocytes): 0.20 | RNA-seq results: SLC25A15 (gene SLC25A15, hepatocytes): −0.28 | RNA-seq results: SLC25A19 (gene SLC25A19, hepatocytes): 0.03 | RNA-seq results: SLC25A20 (gene SLC25A20, hepatocytes): −0.62 | RNA-seq results: SLC25A29 (gene SLC25A29, hepatocytes): 0.92 | RNA-seq results: SLC25A32 (gene SLC25A32, hepatocytes): −0.21

Cl.OC[C@H]1NC[C@H](O)[C@@H](O)[C@H]1O [Deoxygalactonojirimycin hydrochloride]
significant changes in gene expression (RNA-seq of Table 36, FPKM≥0.5, log 2(fold-change)≥1, q-value≤0.05): not observed to cause any significant changes in gene expression | significant modulation of expression of any of the genes analyzed (RNA-seq, hepatocytes): not observed to significantly modulate expression

O=C(N[C@H]1CN2CCC1CC2)c1cc2cccc(Cl)c2s1 [EVP-6124 (hydrochloride) (encenicline), encenicline]
Number (#) of genes having significantly changed expression (RNA-seq, hepatocytes): 141 | significant modulation of expression of disease genes (RNA-seq, hepatocytes): significantly (q≤0.05) modulate expression | B2M expression, RNA-seq result (gene B2M, hepatocytes): 0.16 | B9D2 expression, RNA-seq result (gene B9D2, hepatocytes): −0.55 | BAAT expression, RNA-seq result (gene BAAT, hepatocytes): 0.61 | BBOX1 expression, RNA-seq result (gene BBOX1, hepatocytes): −0.14 | BBS10 expression, RNA-seq result (gene BBS10, hepatocytes): −0.33 | BCHE expression, RNA-seq result (gene BCHE, hepatocytes): −0.41 | BCKDHB expression, RNA-seq result (gene BCKDHB, hepatocytes): −0.31 | BCKDK expression, RNA-seq result (gene BCKDK, hepatocytes): −0.23 | BCO1 expression, RNA-seq result (gene BCO1, hepatocytes): 0.24 | BCR expression, RNA-seq result (gene BCR, hepatocytes): −0.06 | BLNK expression, RNA-seq result (gene BLNK, hepatocytes): 0.39 | BLOC1S3 expression, RNA-seq result (gene BLOC1S3, hepatocytes): 0.46 | BMPR1A expression, RNA-seq result (gene BMPR1A, hepatocytes): 0.09 | BRAF expression, RNA-seq result (gene BRAF, hepatocytes): 0.04 | BSCL2 expression, RNA-seq result (gene BSCL2, hepatocytes): −0.54 | BTD expression, RNA-seq result (gene BTD, hepatocytes): −0.08 | C4A expression, RNA-seq result (gene C4A, hepatocytes): 0.24 | C9 expression, RNA-seq result (gene C9, hepatocytes): −0.11 | C10orf10 expression, RNA-seq result (gene C10orf10, hepatocytes): −0.31 | C10orf11 expression, RNA-seq result (gene C10orf11, hepatocytes): 0.1 | C15orf41 expression, RNA-seq result (gene C15orf41, hepatocytes): −0.2 | CA2 expression, RNA-seq result (gene CA2, hepatocytes): 0.6 | CA5A expression, RNA-seq result (gene CA5A, hepatocytes): 0.1 | CA12 expression, RNA-seq result (gene CA12, hepatocytes): 0.58 | CAV1 expression, RNA-seq result (gene CAV1, hepatocytes): −0.81 | CCND1 expression, RNA-seq result (gene CCND1, hepatocytes): −0.9 | CD46 expression, RNA-seq result (gene CD46, hepatocytes): 0.24 | CD81 expression, RNA-seq result (gene CD81, hepatocytes): 0.27 | CD320 expression, RNA-seq result (gene CD320, hepatocytes): −0.04 | CDAN1 expression, RNA-seq result (gene CDAN1, hepatocytes): −0.04 | CDH1 expression, RNA-seq result (gene CDH1, hepatocytes): −0.12 | CEP19 expression, RNA-seq result (gene CEP19, hepatocytes): −0.06 | CEP83 expression, RNA-seq result (gene CEP83, hepatocytes): −0.3 | CEP164 expression, RNA-seq result (gene CEP164, hepatocytes): −0.12 | CEP290 expression, RNA-seq result (gene CEP290, hepatocytes): −0.26 | CFB expression, RNA-seq result (gene CFB, hepatocytes): 0.1 | CFHR2 expression, RNA-seq result (gene CFHR2, hepatocytes): −0.08 | CHRM3 expression, RNA-seq result (gene CHRM3, hepatocytes): 0.28 | CIDEC expression, RNA-seq result (gene CIDEC, hepatocytes): −0.13 | CLDN1 expression, RNA-seq result (gene CLDN1, hepatocytes): −0.46 | COG1 expression, RNA-seq result (gene COG1, hepatocytes): −0.19
